14 molecules from PubChem BioAssay (NCI) can be followed below.

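Briefly, cells in 96-well plates were exposed to five compound concentrations for 48 h, and endpoints were estimated by linear interpolation. At the GI50, growth is halved. The concentration for full growth arrest is given as TGI.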

Common to all, as to assay: NCI tumour cell line growth inhibition, 48 h
In experiment [1] the test system is OVCAR-3 ovarian.
Experiment [2] has as its system SK-OV-3 ovarian.
Experiment [3] concerns UO-31 renal.
The test system of experiment [4] is RXF 393 renal.
Experiment [5] concerns PC-3 prostate.
Experiment [6] deals with NCI-H460 lung.
For experiment [7], the system named is LOX IMVI melanoma.
The subject of experiment [8] is HT29 colon.
Experiment [9] deals with RPMI-8226 leukemia.
In experiment [10] the test system is BT-549 breast.

For the molecule `Cc1c2oc3c(C)cc(F)c(C(=O)NC4C(=O)NC(C(C)C)C(=O)N5CCCC5C(=O)N(C)CC(=O)N(C)C(C(C)C)C(=O)OC4C)c3nc-2c(C(=O)NC2C(=O)NC(C(C)C)C(=O)N3CCCC3C(=O)N(C)CC(=O)N(C)C(C(C)C)C(=O)OC2C)c(N)c1=O` (configuration not stated), the results for the GI50 in [1] and in experiment [3] were 0.171 µM and 0.458 µM, respectively. Besides, the TGI in experiment [2] is greater than 100 µM; in experiment [3], 4.65 µM; in experiment [4], 0.391 µM; in experiment [5] it was 4.68 µM; in [6], 13.5 µM; in experiment [7], 0.159 µM.
Consider `OCC1OC(c2ccccc2)CC1O` (configuration not stated), for which the TGI in [8], in experiment [1], in experiment [2], in [3], in experiment [4] and in experiment [6] was greater than 100 µM in each case. The TGI in experiment [7] was greater than 100 µM.
`O=c1[nH]c(=O)n(COCc2ccccc2)c2ccccc12`: the TGI in experiment [8] was greater than 100 µM; in [1] it was greater than 100 µM; in experiment [2], greater than 100 µM; in experiment [3], greater than 100 µM; in [4], 94.5 µM; in experiment [5] it was greater than 100 µM. For the same molecule, the TGI in [6] and in [7] was greater than 100 µM throughout.
For the molecule `Cc1cc2oc3c(ccc(=O)n3C)c(=O)c2c(C)c1Cl`, the TGI in [8] was greater than 100 µM; in experiment [1] it was greater than 100 µM; in experiment [2] it was greater than 100 µM; in [3] it was greater than 100 µM; in [4] it was 95.6 µM; in experiment [5], greater than 100 µM. Further, the TGI in [6] and in [7] was greater than 100 µM in each case.
`CC1=NN(C(=O)Cc2ccccc2)C(=O)/C1=C\c1ccccc1O`: the TGI in [8], in experiment [1], in experiment [9], in [2], in experiment [3] and in experiment [4] was greater than 100 µM each time. For the same molecule, the TGI in experiment [6] and in experiment [7] was greater than 100 µM in each case.
In the case of `O=C1CCC2(c3ccc(Cl)cc3)Nc3ncncc3N12` (configuration not stated), the TGI in [8], in [1], in experiment [2], in experiment [3], in experiment [5] and in [10] was greater than 10 µM each time. In addition, the TGI in [6] and in [7] was greater than 10 µM in each case.
Regarding `COc1cc(-c2nc3cc(Cl)c(Cl)cc3[nH]2)ccc1OCC(=O)N=Nc1c(O)[nH]c2ccc(Cl)cc12`, the GI50 in [1] was 0.446 µM; in [2] it was 1.83 µM; in [3], greater than 100 µM; in experiment [4] it was 1 µM; in [7], 0.233 µM. The TGI in [1] is 1.57 µM; in [2] it was 4.57 µM; in experiment [3], greater than 100 µM; in experiment [4] it was 3.4 µM; in experiment [7], 0.738 µM.
For `C1=CN2C[n+]3ccc4ccccc4c3N=C2c2ccccc21`, the TGI in [8] worked out at 10.4 µM; in [1], 3.51 µM; in experiment [9], 11.8 µM; in experiment [2], 47.8 µM; in experiment [3], 69.3 µM; in experiment [5], 31.1 µM. Moreover, the figures for the TGI in experiment [10] and in experiment [6] were 20.9 µM and 16.4 µM, respectively.
Turning to `O=C1CC(C(COCc2ccccc2)OCc2ccccc2)CC(=O)N1` (configuration not stated), the TGI in experiment [8], in experiment [1], in experiment [9], in experiment [3], in [5] and in experiment [10] was greater than 100 µM in each case. Besides, the TGI in experiment [7] was greater than 100 µM.
For `O=C(Nc1ccc(Sc2ccc(N=Nc3c(O)c(S(=O)(=O)O)cc4cc(S(=O)(=O)O)ccc34)cc2)cc1)c1ccc(N=Nc2c(O)c(S(=O)(=O)O)cc3cc(S(=O)(=O)O)ccc23)cc1`, the TGI in experiment [8] is greater than 100 µM; in experiment [1] it was 54.9 µM; in experiment [9], 56.2 µM; in [2], greater than 100 µM; in experiment [3], greater than 100 µM; in experiment [4], 71.7 µM. Besides, the TGI in [6] was found to be 27.7 µM; in experiment [7], 34.5 µM.
As to `CC(=O)c1[nH]c(Nc2ccc(C)cc2)c(C(=S)Nc2ccccc2)c1N`, the TGI in experiment [8] was greater than 100 µM; in experiment [1], 35.5 µM; in experiment [2], greater than 100 µM; in [3] it was 28.4 µM; in experiment [4] it was 27.9 µM; in experiment [10] it was 31.6 µM. Moreover, the TGI was determined as 31.9 µM in experiment [6] and 33.3 µM in experiment [7].
As to `Cc1ccc(N=C2SC(=NN(C)C)SC2=Nc2ccc(C)cc2)cc1`, the TGI in experiment [8], in [9], in [2], in experiment [3], in experiment [4] and in [5] was greater than 100 µM throughout. Also, the TGI in experiment [6] and in experiment [7] was greater than 100 µM in each case.
With `COc1cc(/C(=C2/O[C@@H]([C@H]3COC(C)(C)O3)[C@H]3OC(C)(C)O[C@@H]23)c2ccc3c(c2)OCO3)cc(OC)c1OC`, the GI50 is greater than 25 µM in experiment [8]; greater than 25 µM in experiment [1]; greater than 25 µM in experiment [9]; greater than 25 µM in experiment [2]; greater than 25 µM in experiment [3]; 6.05 µM in experiment [4]. The GI50 in experiment [5], in experiment [6] and in experiment [7] was greater than 25 µM in each case. In addition, the TGI in experiment [8], in experiment [1], in experiment [9], in experiment [2], in experiment [3] and in experiment [4] was greater than 25 µM throughout. The TGI in experiment [5], in experiment [6] and in [7] was greater than 25 µM each time.
Turning to `CCCCOc1ccc2c(c1)CC[C@@H]1[C@@H]2CC[C@]2(C)C(=O)N(CCCC)C(=O)C[C@@H]12`, the TGI in experiment [8], in [1], in experiment [9], in experiment [2], in experiment [3] and in experiment [5] was greater than 100 µM in each case. In addition, the TGI in experiment [10] and in experiment [6] was greater than 100 µM throughout.
